Test results reported in ChEMBL document CHEMBL5108051, “Improving the Antimicrobial Performance of Amphiphilic Cationic Antimicrobial Peptides Using Glutamic Acid Full-Scan and Positive Charge Compensation Strategies” (J Med Chem, 2022).
Converted amounts (≈) assume the structure as drawn. The source made the active and inactive calls. No cut-off for these calls is given here. Bridge positions count the residues as written; N and C are the ends. Square brackets hold non-standard residues; d marks the D form. Peptide text beside a SMILES is read from it. * marks the point of attachment. X1 = CC[C@H](C)CCCCC(=O)*; Dab = NCC[C@H](N)C(=O)O

How the values were obtained:
[1] = tested on: Cell membrane; assay: Induction of outer membrane permeabilization to NPN in Staphylococcus aureus ATCC 25923 cells assessed as increase in fluorescence intensity measured within 1 min by NPN fluorescent dye based microplate reader assay; format: subcellular
[2] = tested on: Cell membrane; assay: Induction of cell membrane disruption in Escherichia coli ATCC 25922 assessed as cell morphological damage measured after 30 mins by […] electron microscope analysis; format: subcellular
[3] = tested on: Staphylococcus aureus; assay: Antibacterial activity against Staphylococcus aureus ATCC 25923 assessed as growth inhibition measured after 18 to 24 hrs by CLSI based broth microdilution method; format: functional; details: time 18-24 hrs
[4] = Acute toxicity in BALB/c mouse assessed as mortality at 80 mg/kg, ip administered as single dose measured for 7 days; format: organism-based; details: in vivo, time 7 day
[5] = tested on: Escherichia coli; assay: Antibacterial activity against rifampin resistant Escherichia coli ATCC 25922 assessed as fractional inhibitory concentration index in presence of rifampin by checkerboard assay; format: functional
[6] = tested on: Staphylococcus aureus; assay: Antibacterial activity against rifampin resistant Staphylococcus aureus ATCC 25923 assessed as fractional inhibitory concentration index in presence of kanamycin by checkerboard assay; format: functional
[7] = tested on: Staphylococcus aureus; assay: Antibacterial activity against gentamicin resistant Staphylococcus aureus ATCC 25923 assessed as fractional inhibitory concentration index in presence of gentamicin by checkerboard assay; format: functional
[8] = Acute toxicity in BALB/c mouse assessed as pathological changes in heart at 20 to 80 mg/kg, ip administered as single dose measured for 7 days by H and E staining method; format: organism-based; details: in vivo, 168 h, dose 20-80 mg/kg, time 7 day
[9] = tested on: Staphylococcus aureus; assay: Antibacterial activity against Staphylococcus aureus ATCC 25923 assessed as fractional inhibitory concentration index in presence of vancomycin by checkerboard assay; format: functional
[10] = tested on: Escherichia coli; assay: Induction of cell membrane damage in Escherichia coli ATCC 25922 assessed as increase in nucleic acid leakage by microplate reader assay; format: functional, organism-based; details: time 0-6 hrs, TDE = time-dependent effect
[11] = tested on: Staphylococcus aureus; assay: Antibacterial activity against Staphylococcus aureus ATCC 25923 assessed as resistance development measured after 15 passages at sub-MIC concentration by resistance development assay; format: functional, organism-based
[12] = tested on: Escherichia coli; assay: Antibacterial activity against Escherichia coli ATCC 25922 assessed as growth inhibition measured after 18 to 24 hrs by CLSI based broth microdilution method; format: functional; details: time 18-24 hrs
[13] = tested on: Klebsiella pneumoniae; assay: Antibacterial activity against Klebsiella pneumoniae ATCC 700603 assessed as growth inhibition measured after 18 to 24 hrs by CLSI based broth microdilution method; format: functional; details: time 18-24 hrs
[14] = tested on: Escherichia coli; assay: Antibacterial activity against Escherichia coli ATCC 25922 assessed as fractional inhibitory concentration index in presence of rifampin by checkerboard assay; format: functional
[15] = Retention time of the compound by RP-HPLC analysis; format: physicochemical
[16] = tested on: Cell membrane; assay: Induction of inner membrane permeabilization in Escherichia coli ML-35 ATCC 43837 assessed as increase in absorbance at 1 to 4 times MIC measured at 420 nm in presence of ONPG by microplate reader assay; format: subcellular; details: DDE = dose-dependent effect
[17] = tested on: Staphylococcus aureus; assay: Antibacterial activity against Staphylococcus aureus ATCC 25923 assessed as fractional inhibitory concentration index in presence of kanamycin by checkerboard assay; format: functional
[18] = tested on: Staphylococcus aureus; assay: Antibacterial activity against gentamicin resistant Staphylococcus aureus ATCC 25923 assessed as fractional inhibitory concentration index in presence of kanamycin by checkerboard assay; format: functional
[19] = tested on: Escherichia coli; assay: Antibacterial activity against Escherichia coli ATCC 25922 assessed as resistance development measured after 15 passages at sub-MIC concentration by resistance development assay; format: functional, organism-based
[20] = tested on: Staphylococcus aureus; assay: Antibacterial activity against rifampin resistant Staphylococcus aureus ATCC 25923 assessed as fractional inhibitory concentration index in presence of vancomycin by checkerboard assay; format: functional
[21] = tested on: Escherichia coli; assay: Antibacterial activity against gentamicin resistant Escherichia coli ATCC 25922 assessed as fractional inhibitory concentration index in presence of kanamycin by checkerboard assay; format: functional
[22] = tested on: Cell membrane; assay: Induction of cell membrane disruption in Escherichia coli ATCC 25922 assessed as increase in PI uptake measured after 30 to 120 mins by propidium iodide staining based FACS flow cytometry analysis (reference value: 6.0 %); format: subcellular; details: time 30-120 min
[23] = tested on: Staphylococcus aureus; assay: Antibacterial activity against Staphylococcus aureus ATCC 25923 assessed as fractional inhibitory concentration index in presence of gentamicin by checkerboard assay; format: functional
[24] = tested on: Cell membrane; assay: Induction of cell membrane disruption in Staphylococcus aureus ATCC 25923 assessed as cell morphological damage measured after 120 mins by […] electron microscope analysis; format: subcellular
[25] = tested on: Escherichia coli; assay: Antibacterial activity against gentamicin resistant Escherichia coli ATCC 25922 assessed as fractional inhibitory concentration index in presence of rifampin by checkerboard assay; format: functional
[26] = tested on: Cell membrane; assay: Induction of cell membrane disruption in Staphylococcus aureus ATCC 25923 assessed as increase in PI uptake measured after 30 to 120 mins by propidium iodide staining based FACS flow cytometry analysis (reference value: 15%); format: subcellular; details: time 30-120 min
[27] = tested on: Pseudomonas aeruginosa; assay: Antibacterial activity against Pseudomonas aeruginosa ATCC 27853 assessed as growth inhibition measured after 18 to 24 hrs by CLSI based broth microdilution method; format: functional; details: time 18-24 hrs
[28] = tested on: Cell membrane; assay: Induction of cell membrane disruption in Escherichia coli ATCC 25922 assessed as cell morphological damage measured after 120 mins by […] electron microscope analysis; format: subcellular
[29] = Stability of the compound in mouse serum at 10 mM assessed as half life by RP-HPLC analysis; format: ADME, cell-free
[30] = tested on: Staphylococcus aureus; assay: Antibacterial activity against gentamicin resistant Staphylococcus aureus ATCC 25923 assessed as fractional inhibitory concentration index in presence of rifampin by checkerboard assay; format: functional
[31] = tested on: Escherichia coli; assay: Antibacterial activity against gentamicin resistant Escherichia coli ATCC 25922 assessed as fractional inhibitory concentration index in presence of gentamicin by checkerboard assay; format: functional
[32] = tested on: Escherichia coli; assay: Antibacterial activity against Escherichia coli ATCC 25922 assessed as fractional inhibitory concentration index in presence of kanamycin by checkerboard assay; format: functional
[33] = tested on: Escherichia coli; assay: Antibacterial activity against Escherichia coli ATCC 25922 assessed as fractional inhibitory concentration index in presence of vancomycin by checkerboard assay; format: functional
[34] = tested on: Bacillus subtilis; assay: Antibacterial activity against Bacillus subtilis ATCC 23857 assessed as growth inhibition measured after 18 to 24 hrs by CLSI based broth microdilution method; format: functional; details: time 18-24 hrs
[35] = tested on: Staphylococcus aureus; assay: Induction of cell membrane damage in Staphylococcus aureus ATCC 25923 assessed as increase in nucleic acid leakage by microplate reader assay; format: functional, organism-based; details: time 0-6 hrs, TDE = time-dependent effect
[36] = tested on: Escherichia coli; assay: Antibacterial activity against rifampin resistant Escherichia coli ATCC 25922 assessed as fractional inhibitory concentration index in presence of gentamicin by checkerboard assay; format: functional
[37] = tested on: Escherichia coli; assay: Antibacterial activity against gentamicin resistant Escherichia coli ATCC 25922 assessed as fractional inhibitory concentration index in presence of vancomycin by checkerboard assay; format: functional
[38] = tested on: Staphylococcus aureus; assay: In vivo antimicrobial activity against Staphylococcus aureus ATCC 25923 infected in BALB/C mouse pulmonary infection model at 5 to 10 mg/kg, ip; format: functional, organism-based; details: dose 5-10 mg/kg
[39] = tested on: Staphylococcus aureus; assay: Antibacterial activity against rifampin resistant Staphylococcus aureus ATCC 25923 assessed as fractional inhibitory concentration index in presence of rifampin by checkerboard assay; format: functional

Structure (SMILES): CC(C)C[C@H](NC(=O)[C@H](CC(C)C)NC(=O)[C@H](CCC(=O)O)NC(=O)[C@H](CCCCN)NC(=O)[C@H](CC(C)C)NC(=O)[C@H](CC(C)C)NC(=O)[C@H](CCCCN)NC(=O)[C@H](C)NC(=O)[C@@H](NC(=O)[C@H](CCCCN)NC(=O)[C@@H]1CCCN1C(=O)[C@H](CC(C)C)NC(=O)[C@@H](N)Cc1ccccc1)C(C)C)C(N)=O (H-FLPKVAKLLKELL-NH2)
- Activity [1]: Active
- Activity [2]: Active
- MIC [3]: 8 µM (≈ 12.1 µg/mL)
- mortality at 168 h ([4]; BALB/c, read-out: Activity): 40%
- fractional inhibitory concentration index (FICI) [5]: 0.75
- fractional inhibitory concentration index (FICI) [6]: 0.625
- fractional inhibitory concentration index (FICI) [7]: 0.75
- Activity [8]: Non-Toxic
- fractional inhibitory concentration index (FICI) [9]: 0.75
- Activity [10]: Tde
- Activity [11]: Active
- MIC [12]: 8 µM (≈ 12.1 µg/mL)
- MIC [13]: 16 µM (≈ 24.2 µg/mL)
- fractional inhibitory concentration index (FICI) [14]: 0.625
- Retention_time [15]: 16.475 min
- Activity [16]: Dde
- fractional inhibitory concentration index (FICI) [17]: 0.625
- fractional inhibitory concentration index (FICI) [18]: 1
- Activity [19]: Active
- fractional inhibitory concentration index (FICI) [20]: 1
- fractional inhibitory concentration index (FICI) [21]: 1.25
- Activity [22]: 83.1%
- fractional inhibitory concentration index (FICI) [23]: 0.625
- Activity [24]: Active
- fractional inhibitory concentration index (FICI) [25]: 0.625
- Activity [26]: 49.3%
- MIC [27]: 8 µM (≈ 12.1 µg/mL)
- Activity [28]: Active
- half-life at 10000 µM [29]: 9.64 h
- fractional inhibitory concentration index (FICI) [30]: 0.625
- fractional inhibitory concentration index (FICI) [31]: 1.25
- fractional inhibitory concentration index (FICI) [32]: 0.625
- fractional inhibitory concentration index (FICI) [33]: 0.375
- MIC [34]: 4 µM (≈ 6.04 µg/mL)
- Activity [35]: Tde
- fractional inhibitory concentration index (FICI) [36]: 0.75
- fractional inhibitory concentration index (FICI) [37]: 0.75
- Activity [38]: Active
- fractional inhibitory concentration index (FICI) [39]: 0.75

Structure (SMILES): CC[C@H](C)CCCCC(=O)N[C@@H](CCN)C(=O)N[C@H](C(=O)N[C@@H](CCN)C(=O)N[C@H]1CCNC(=O)[C@H]([C@@H](C)O)NC(=O)[C@H](CCN)NC(=O)[C@H](CCN)NC(=O)[C@H](CC(C)C)NC(=O)[C@@H](Cc2ccccc2)NC(=O)[C@H](CCN)NC1=O)[C@@H](C)O (X1-[Dab]T[Dab][Dab][Dab][dF]L[Dab][Dab]T; lactam 4-C)
- Activity [1]: Active
- Activity [2]: Active
- MIC [3]: 16 µM (≈ 19.3 µg/mL)
- Activity ([4]; ip, 80 mg/kg, 168 h): Toxic
- fractional inhibitory concentration index (FICI) [5]: 0.5625
- fractional inhibitory concentration index (FICI) [6]: 0.625
- fractional inhibitory concentration index (FICI) [7]: 0.5
- Activity [8]: Non-Toxic
- fractional inhibitory concentration index (FICI) [9]: 1.0625
- Activity [10]: Tde
- Activity [11]: Active
- MIC [12]: 4 µM (≈ 4.81 µg/mL)
- MIC [13]: 4 µM (≈ 4.81 µg/mL)
- fractional inhibitory concentration index (FICI) [14]: 0.1875
- Retention_time [15]: 13.125 min
- Activity [16]: Dde
- fractional inhibitory concentration index (FICI) [17]: 0.75
- fractional inhibitory concentration index (FICI) [18]: 0.625
- Activity [19]: Active
- fractional inhibitory concentration index (FICI) [20]: 1
- fractional inhibitory concentration index (FICI) [21]: 0.375
- Activity [22]: 38.5%
- fractional inhibitory concentration index (FICI) [23]: 0.75
- Activity [24]: Active
- fractional inhibitory concentration index (FICI) [25]: 0.375
- Activity [26]: 45.8%
- MIC [27]: 2 µM (≈ 2.41 µg/mL)
- Activity [28]: Active
- half-life at 10000 µM [29]: 12.5 h
- fractional inhibitory concentration index (FICI) [30]: 0.5625
- fractional inhibitory concentration index (FICI) [31]: 0.625
- fractional inhibitory concentration index (FICI) [32]: 0.375
- fractional inhibitory concentration index (FICI) [33]: 0.375
- MIC [34]: 4 µM (≈ 4.81 µg/mL)
- Activity [35]: Tde
- fractional inhibitory concentration index (FICI) [36]: 0.375
- fractional inhibitory concentration index (FICI) [37]: 0.3125
- Activity [38]: Active
- fractional inhibitory concentration index (FICI) [39]: 1
